Measurements from US20250101038A1, “COMPOUNDS” (priority 2021, published 2025).

Tested on: ARS-TST mouse model of depression
Assay: Acute restraint stress tail suspension test (ARS-TST)
Type: in vivo
Details: male ICR mice, intraperitoneal, tested 10 minutes after treatment
Description: Male ICR mice (23±3 g) were purchased from BioLASCO (Taipei, Taiwan) at 4-5 weeks of age and allowed 5-7 days to acclimate to the animal research facility at Pharmacology Discovery Services (Taipei, Taiwan). Mice were housed in groups of 10 in a large cage (47×25×15 cm) on a 12-hour light cycle (lights on: 0700) and provided ad libitum food and water except during acute restraint stress and tail-suspension testing. Temperature was maintained at 20-24° C., and all rooms (colony and testing rooms) had similar lighting intensity. All aspects of this work including housing, experimentation, and animal disposal were performed in accordance with the “Guide for the Care and Use of Laboratory Animals: Eighth Edition” (The National Academies Press, Washington, DC, 2011) in a facility accredited by the Association for Assessment and Accreditation of Laboratory Animal Care. […]
Tail Suspension Test (TST) Procedure: Mice were individually suspended on the edge of a shelf, 58 cm above a tabletop, using adhesive tape placed approximately 1 cm from the tip of the tail, for a total duration of 7 minutes. Using a stopwatch, the experimenters blinded to treatment groups recorded the duration of immobility (defined as hanging passively and motionless) during the 5 minutes spanning from 2-7 minutes. The data from 0-2 minutes was not recorded. […]

| Compound | immobility time |
| --- | --- |
| CCN(C)CCc1c[nH]c2ccc(OC)c(C)c12 [Example P-37, N-ethyl-2-(5-methoxy-4-methyl-1H-indol-3-yl)-N-methylethan-1-amine] | decrease immobility time |
| CCN(C)CCc1c[nH]c2c(C)cc(OC)cc12 [Example P-51, N-ethyl-2-(5-methoxy-7-methyl-1H-indol-3-yl)-N-methylethan-1-amine] | decrease immobility time |
